The record followed here is ChEMBL document CHEMBL2016494, “Ligand-based design of a potent and selective inhibitor of cytochrome P450 2C19” (J Med Chem, 2012).

The nature of series [1]: Apparent intrinsic clearance in human liver microsomes by LC-MS/MS analysis.
In another series the target is Cytochrome P450 2D6 (Homo sapiens, UniProt P10635). The series is described as follows: Inhibition of CYP2D6 in human liver microsomes using dextromethorphan as substrate preincubated for 5 mins by LC-MS/MS analysis.
Sequence of Cytochrome P450 2D6 (P10635 whole entry): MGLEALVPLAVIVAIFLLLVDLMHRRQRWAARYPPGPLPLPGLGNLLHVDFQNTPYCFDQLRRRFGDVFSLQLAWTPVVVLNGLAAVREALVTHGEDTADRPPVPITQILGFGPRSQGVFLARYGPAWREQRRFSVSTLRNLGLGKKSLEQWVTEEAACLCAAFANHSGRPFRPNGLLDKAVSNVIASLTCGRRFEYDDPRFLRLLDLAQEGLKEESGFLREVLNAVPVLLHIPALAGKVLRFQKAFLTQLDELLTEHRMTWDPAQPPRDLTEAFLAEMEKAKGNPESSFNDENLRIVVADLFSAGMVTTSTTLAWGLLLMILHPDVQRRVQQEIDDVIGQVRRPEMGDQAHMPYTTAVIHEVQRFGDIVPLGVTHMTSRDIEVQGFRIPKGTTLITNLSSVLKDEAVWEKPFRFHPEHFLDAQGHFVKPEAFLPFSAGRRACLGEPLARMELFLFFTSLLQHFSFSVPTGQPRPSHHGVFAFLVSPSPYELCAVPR
The nature of series [2]: Half life in human liver microsomes by LC-MS/MS analysis.
The target in a further series is T1, Cytochrome P450 1A2 (Homo sapiens, UniProt P05177).
T1 sequence (P05177 whole entry): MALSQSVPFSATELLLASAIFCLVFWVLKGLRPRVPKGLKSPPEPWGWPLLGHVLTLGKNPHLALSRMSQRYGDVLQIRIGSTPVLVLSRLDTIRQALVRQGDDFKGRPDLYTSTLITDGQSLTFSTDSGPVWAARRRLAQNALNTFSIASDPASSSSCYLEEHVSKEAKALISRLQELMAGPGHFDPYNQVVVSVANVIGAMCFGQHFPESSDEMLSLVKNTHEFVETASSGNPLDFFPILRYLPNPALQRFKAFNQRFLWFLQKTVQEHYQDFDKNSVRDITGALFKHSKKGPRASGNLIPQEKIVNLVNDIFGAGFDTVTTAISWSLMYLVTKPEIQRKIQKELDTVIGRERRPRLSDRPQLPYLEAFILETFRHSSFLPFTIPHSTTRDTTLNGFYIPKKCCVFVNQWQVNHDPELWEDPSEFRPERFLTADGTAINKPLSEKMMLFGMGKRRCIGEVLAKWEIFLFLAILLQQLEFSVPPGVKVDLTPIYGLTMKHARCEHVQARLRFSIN
Nature of the series: Inhibition of CYP1A2 in human liver microsomes using phenacetin preincubated for 5 mins by LC-MS/MS analysis.

The target of another series is T2, Cytochrome P450 2C8 (Homo sapiens, UniProt P10632).
T2 sequence (P10632 whole entry): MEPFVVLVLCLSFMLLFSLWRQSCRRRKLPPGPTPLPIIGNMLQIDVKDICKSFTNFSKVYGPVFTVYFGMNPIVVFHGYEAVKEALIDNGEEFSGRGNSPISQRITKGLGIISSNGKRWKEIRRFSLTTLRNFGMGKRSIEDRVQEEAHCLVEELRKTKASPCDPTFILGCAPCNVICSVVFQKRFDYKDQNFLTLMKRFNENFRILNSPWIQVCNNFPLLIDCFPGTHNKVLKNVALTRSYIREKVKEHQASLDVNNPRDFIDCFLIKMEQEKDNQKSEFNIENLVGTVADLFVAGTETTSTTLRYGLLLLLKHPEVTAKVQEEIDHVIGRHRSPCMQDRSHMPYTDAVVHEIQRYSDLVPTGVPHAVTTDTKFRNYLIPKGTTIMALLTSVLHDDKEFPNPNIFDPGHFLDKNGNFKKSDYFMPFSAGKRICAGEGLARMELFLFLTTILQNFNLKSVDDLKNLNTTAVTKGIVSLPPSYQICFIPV
Nature of the series: Inhibition of CYP2C8 in human liver microsomes using paclitaxel as substrate preincubated for 5 mins by LC-MS/MS analysis.

The target in a further series is T3, Cytochrome P450 2B6 (Homo sapiens, UniProt P20813).
T3 sequence (P20813 whole entry): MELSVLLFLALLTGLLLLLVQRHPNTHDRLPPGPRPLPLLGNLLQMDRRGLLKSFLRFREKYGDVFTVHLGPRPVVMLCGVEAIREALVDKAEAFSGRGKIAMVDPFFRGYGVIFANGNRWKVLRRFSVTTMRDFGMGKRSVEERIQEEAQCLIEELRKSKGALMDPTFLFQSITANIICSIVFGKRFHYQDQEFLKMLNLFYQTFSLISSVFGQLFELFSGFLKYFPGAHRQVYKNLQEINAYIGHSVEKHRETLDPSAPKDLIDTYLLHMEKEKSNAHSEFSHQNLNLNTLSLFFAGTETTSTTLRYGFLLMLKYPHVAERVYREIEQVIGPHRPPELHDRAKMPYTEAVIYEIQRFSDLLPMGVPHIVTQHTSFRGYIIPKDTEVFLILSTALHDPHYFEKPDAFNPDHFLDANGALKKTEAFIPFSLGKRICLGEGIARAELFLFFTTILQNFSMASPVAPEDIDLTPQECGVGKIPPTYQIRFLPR
The series is described as follows: Inhibition of CYP2B6 in human liver microsomes using bupropion as substrate preincubated for 5 mins by LC-MS/MS analysis.

The target of a further series is Cytochrome P450 2E1 (Homo sapiens, UniProt P05181). The series is described as follows: Inhibition of CYP2E1 in human liver microsomes using chlorzoxazone as substrate preincubated for 5 mins by LC-MS/MS analysis.
Sequence of Cytochrome P450 2E1 (P05181 whole entry): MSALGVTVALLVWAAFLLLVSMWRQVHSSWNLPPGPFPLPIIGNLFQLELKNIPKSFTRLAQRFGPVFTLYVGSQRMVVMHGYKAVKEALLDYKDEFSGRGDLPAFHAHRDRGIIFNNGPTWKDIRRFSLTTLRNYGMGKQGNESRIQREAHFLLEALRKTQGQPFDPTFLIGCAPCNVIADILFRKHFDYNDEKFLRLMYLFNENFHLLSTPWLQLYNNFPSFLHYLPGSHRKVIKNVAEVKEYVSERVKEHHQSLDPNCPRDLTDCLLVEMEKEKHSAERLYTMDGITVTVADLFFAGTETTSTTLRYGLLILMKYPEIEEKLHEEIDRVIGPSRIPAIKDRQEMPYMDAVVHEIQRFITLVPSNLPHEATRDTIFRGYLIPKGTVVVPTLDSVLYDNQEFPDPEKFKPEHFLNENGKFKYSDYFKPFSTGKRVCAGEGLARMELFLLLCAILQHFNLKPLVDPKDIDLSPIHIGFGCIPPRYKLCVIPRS

Molecules are shown by their SMILES.

In the case of `CCCSc1nc2ccc(OC)cc2[nH]1`, the intrinsic metabolic clearance (microsomal CLint) in series [1] (microsomes) stood at 724 µL/min/mg. Further, the figures for the IC50 on Cytochrome P450 2D6, on Cytochrome P450 1A2 and against Cytochrome P450 2C8 were 1.94 µM, 0.93 µM and 3.12 µM, respectively. The half-life in series [2] (microsomes) was determined as 0.16 h.
On to `COc1ccc2[nH]c(SCCCC(=O)O)nc2c1`, for which, in series [1] (liver microsomes), the microsomal CLint is less than 57.8 µL/min/mg. The same compound returned a half-life in series [2] (liver microsomes) of 2 h. In addition, the midpoint of inhibition at Cytochrome P450 2B6, the IC50, lay at 28.8 µM.
For the compound `COc1ccc2[nH]c(SCc3ccccc3)nc2c1`, in series [1] (microsomes), the microsomal CLint was less than 57.8 µL/min/mg. The IC50 against Cytochrome P450 2E1, on Cytochrome P450 2C8 and against Cytochrome P450 2B6 was more than 50 µM throughout. This compound displayed a half-life in series [2] (microsomes) of 2 h.
With `COc1ccc2nc(SCc3ccc(C(=O)O)cc3)[nH]c2c1`, the microsomal CLint in series [1] (liver microsomes) amounted to 860 µL/min/mg. This compound also came in with a half-life in series [2] (liver microsomes) of 0.134 h.
